Reference: patent EP2145538A1 (priority 2008, dated 2010)
In brackets after ≈: the same amount, converted by molar mass. Several values for one entry are separate records, joined by “and”; a condition that tells them apart may be missing. Equal values may be shown once. Entries after “also recorded” stand apart in the source; their conditions may differ. Read-outs that look alike come from different tables or passages of the source.

Columns and labels:
[1] = test system: Fusarium graminearum; format: in vivo
[2] = test system: Blumeria graminis f. sp. tritici; experiment: Powdery mildew rating on sprayed wheat plants (MOLL et al. 1996); format: in vivo; settings: 7 dpi; spray treatment at 3-leaf stage; AI-1 and AI-2 1 mg/ml, CI 100 µg/ml; Kontrolle 60
From the text: Nach einer Sprühbehandlung der Weizenpflanzen im 3-Blatt-Stadium und anschließender Inokulation (nach Abtrocknen) mit Mehltau Blumeria graminis f. sp. tritici sind eindeutige Hemmeffekte zu erkennen (Figur 25-27). Eine Bonitur nach MOLL et al. (1996) ergab für den Amylase-Inhibitor AI-1 eine Befallsreduktion von 60% auf 7%, für den Amylase-Inhibitor AI-2 auf 1 % und für den Cellulase-Inhibitor CI auf 10% (Tabelle 3). Tab. 3: Bonitur des Mehltaubefalls (Blumeria graminis f. sp. tritici) nach MOLL et al. (1996) 7 dpi.

[3] = test system: Fusarium graminearum; experiment: microbe, parasite or virus in culture; format: cell-based; settings: for Einfluss auf das Wachstum von Fusarium graminearum: Saccharose as sole C source, up to 14 days
[4] = test system: Amylase aus Bacillus sp.; experiment: Amylase activity assay in microtiter plates (dye-labelled starch substrate), commercial enzyme; format: biochemical; settings: for Hemmung der Enzymaktivität: result in words
From the text: (§1) Diese Methode basiert auf folgendem Prinzip:

[5] = target: T1, Humanspeichelamylase (Homo sapiens, UniProt P0DUB6); experiment: as above; format: biochemical
T1 construct: purchased Sigma
T1 sequence (P0DUB6 16-511): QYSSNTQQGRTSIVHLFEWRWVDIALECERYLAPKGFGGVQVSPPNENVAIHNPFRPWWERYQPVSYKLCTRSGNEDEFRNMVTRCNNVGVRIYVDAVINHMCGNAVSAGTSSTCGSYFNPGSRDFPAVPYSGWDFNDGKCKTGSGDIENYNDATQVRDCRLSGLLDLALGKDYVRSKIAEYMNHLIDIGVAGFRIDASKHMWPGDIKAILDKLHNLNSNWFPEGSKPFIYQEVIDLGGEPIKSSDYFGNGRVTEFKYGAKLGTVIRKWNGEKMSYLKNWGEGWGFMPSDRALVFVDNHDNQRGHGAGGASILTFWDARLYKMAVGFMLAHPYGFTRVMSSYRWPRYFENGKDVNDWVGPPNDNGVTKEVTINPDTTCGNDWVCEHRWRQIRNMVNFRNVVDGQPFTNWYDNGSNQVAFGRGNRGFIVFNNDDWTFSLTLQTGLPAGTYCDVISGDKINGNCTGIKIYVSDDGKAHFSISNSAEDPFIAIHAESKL
From the text: as §1

[6] = target: Amylase aus Aspergillus oryzae (Aspergillus oryzae, UniProt P0C1B3); experiment: Amylase activity assay in microtiter plates (dye-labelled starch substrate), commercial enzymes; format: biochemical; settings: both Aspergillus amylases (35 U/mg Fluka, 200 U/mg Sigma); result in words
From the text: as §1

[7] = test system: Weizenpflanzen; settings: in vivo
[8] = test system: Amylasen aus Kulturfiltrat (Strohextrakt) von in vitro angezogenem Fusarium graminearum; format: biochemical; settings: for Hemmung der Enzymaktivität: result in words
[9] = test system: Fusarium graminearum; format: in vivo; settings: for Fusarium Protein Equivalent (µg/g), Mittelwert: above-ground parts; for Fusarium Protein Equivalent (µg/g), Mittelwert / Fusarium Protein Equivalent (µg /g), Mean: 2 weeks after sowing; for Aussehen der behandelten, infizierten Pflanzen (Fotos): folded filter, very high infection pressure; for Reduktion des Befalls der Wurzeln (ELISA): roots of infected wheat seedlings on folded filter; for Fusarium Protein Equivalent (µg /g), Mean: roots
[10] = test system: Amylasen von mit F. graminearum infizierten Pflanzen; format: biochemical, Fusarium graminearum; settings: for Hemmung der Enzymaktivität: result in words
[11] = target: T2, Endoglukanase II (EG II) (Trichoderma reesei, UniProt P07982); settings: result in words; cited from earlier work
T2 sequence (P07982 22-418): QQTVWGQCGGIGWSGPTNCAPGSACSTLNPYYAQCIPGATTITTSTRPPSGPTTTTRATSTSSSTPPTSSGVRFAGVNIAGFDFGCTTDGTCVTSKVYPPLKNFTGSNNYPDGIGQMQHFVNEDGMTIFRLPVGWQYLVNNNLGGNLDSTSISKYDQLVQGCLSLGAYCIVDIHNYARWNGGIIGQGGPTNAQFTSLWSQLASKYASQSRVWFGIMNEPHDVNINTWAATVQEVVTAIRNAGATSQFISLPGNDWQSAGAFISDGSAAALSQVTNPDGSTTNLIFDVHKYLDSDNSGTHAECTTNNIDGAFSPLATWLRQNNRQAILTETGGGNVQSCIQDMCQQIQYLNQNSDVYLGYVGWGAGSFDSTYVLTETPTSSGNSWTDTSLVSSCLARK

[12] = target: T3, Cellobiohydrolase I (CBH I) (Trichoderma reesei, UniProt P62694); settings: result in words; cited from earlier work
T3 sequence (P62694 18-513): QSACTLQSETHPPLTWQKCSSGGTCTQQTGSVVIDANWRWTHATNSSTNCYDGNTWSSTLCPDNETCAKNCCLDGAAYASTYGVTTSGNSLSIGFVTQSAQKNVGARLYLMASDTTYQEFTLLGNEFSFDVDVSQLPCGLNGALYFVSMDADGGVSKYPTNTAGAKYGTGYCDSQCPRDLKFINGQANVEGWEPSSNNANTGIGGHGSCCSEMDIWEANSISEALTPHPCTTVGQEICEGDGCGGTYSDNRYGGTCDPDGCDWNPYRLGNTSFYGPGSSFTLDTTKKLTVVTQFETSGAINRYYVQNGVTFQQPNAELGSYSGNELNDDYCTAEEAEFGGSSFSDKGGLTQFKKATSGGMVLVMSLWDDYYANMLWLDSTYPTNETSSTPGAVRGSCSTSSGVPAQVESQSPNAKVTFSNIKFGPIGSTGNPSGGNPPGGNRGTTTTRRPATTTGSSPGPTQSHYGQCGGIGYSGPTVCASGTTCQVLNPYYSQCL

[13] = infected with F.g. + inhibitor, infected control 341,44
[14] = infected with F.g. + inhibitor, infected control 1261,2
[15] = Stärke as sole C source, 14 days

Compound: CC1OC(OC2C(CO)OC(OC3C(CO)OC(O)C(O)C3O)C(O)C2O)C(O)C(O)C1NC1C=C(CO)C(O)C(O)C1O (stereo not drawn) [AI-1, Acarbose]
- Reduktion der Pilzmenge (ELISA) ([1]; Versuch 1, 4 weeks, seed dip treatment): 66%
- Hemmung des Pilzwachstums (ELISA) ([1]; Versuch 1, 4 weeks, seed dip treatment, result in words): vollständige Hemmung
- Hemmung des Pilzwachstums / Reduktion der Pilzmenge (ELISA) ([1]; Versuch 2, 4 weeks, seed dip treatment): 60% and 85%
- Blattfrischgewicht infizierter Pflanzen ([1]; soil substrate, greenhouse, 4 weeks, AI-1 1 mg /ml seed treatment, result in words): hebt diese Frischgewichtsdepression auf; also recorded: gleiche Frischgewicht wie die nicht infizierte Kontrolle
- Befall (%) [2]: 7%
- MIC ([3]; Fusarium graminearum, 336 h, read-out: Konzentration, bei der das Wachstum total gehemmt wird): 30 µg/mL (≈ 46.5 µM)
- inhibition of growth at 15 µg/mL ([3]; Fusarium graminearum, read-out: Hemmung des Wachstums): ~50%
- Einfluss auf das Wachstum von Fusarium graminearum ([3]; result in words): keinen negativen Einfluss; also recorded: sogar gefördert
- Faktor effektiver als der Cellulase-Inhibitor gegenüber Stärke als Substrat ([3]; total inhibition, 30 µg/ml versus 100 µg/ml): 3
- Hemmung der Enzymaktivität ([4]; 0,5 mg/ml): ebenfalls gehemmt, jedoch durch diese Konzentration nicht total ausschaltet
- IC100 ([5]; Humanamylase (500 U/mg, Sigma), read-out: Konzentration, bei der die Amylase vollständig / total gehemmt wird): 250 µg/mL
- Hemmung der Enzymaktivität [6]: nicht oder nur sehr schwach beeinflusst
- Hemmung von Keimung und Pflanzenwachstum [7]: weder der Amylase-Inhibitor AI-1 noch der amylasehemmende Wirkung zeigende Cellulose-Inhibitor die Keimung und das Pflanzenwachstum hemmten
- Konzentration, bei der die Amylasen total gehemmt wurden [8]: 0,06 mg/ml
- Amylase-Aktivität reduziert bis auf ([8]; 5 µg/ml, remaining activity): 28%
- Fusarium Protein Equivalent (µg/g), Mittelwert [9, 13]: 25,2 µg/g
- Fusarium Protein Equivalent (µg/g), Mittelwert ([9]; not infected (K) + inhibitor): 2,2 µg/g
- Aussehen der behandelten, infizierten Pflanzen (Fotos) ([9]; result in words): fast normal aussehen
- Effekt auf der Basis des Frischgewichtes ([9]; infected wheat seedlings on folded filter, 2 weeks, result in words): starke befallreduzierende Effekt; also recorded: positive Effekt
- Reduktion des Befalls der Wurzeln (ELISA) ([9]; 2 weeks): 66% and 61%
- Fusarium Protein Equivalent (µg /g), Mean [9, 14]: 554,8 µg /g
- Fusarium Protein Equivalent (µg /g), Mean ([9]; not infected (K) + inhibitor): 6,3 µg /g
- Amylasen gehemmt bis auf ([10]; 0,5 mg/ml, not totally switched off): 69,2%
- Hemmung der Enzymaktivität [10]: starke, wenn auch nicht vollständige Hemmung

Compound: Na2PdCl6 · 4 H2O [CI]
- Inhibition [11]: in starkem Maße zu inhibieren
- Hemmung des Pilzwachstums ([1]; soil substrate, greenhouse, 4 weeks, both trials, CI 100µg /ml seed treatment, result in words): nicht hemmt; also recorded: keinerlei Effekt
- Befall (%) [2]: 10%
- Hemmung des Pilzwachstums ([3]; Cellulose as C source, 12,5 µg/ml, 14 days, result in words): deutliche Wachstumsdepression
- Wachstumsdepression ([3]; Cellulose as C source, ab 50 bis 100 µg/mL, 14 days): 100%
- Konzentration, bei der das Wachstum total gehemmt ist ([3]; Cellulose as sole C source): 50 µg/mL
- Wachstumsrate reduziert um ([3]; Cellulose as sole C source, 12,5 µg/ml): ca. 50%
- Einfluss auf das Wachstum von Fusarium graminearum ([3]; result in words): nicht gehemmt
- Einfluss auf das Wachstum ([3]; Stärke as sole C source, 6,5-12,5 µg/ml, result in words): verifizierbare Wachstumsförderung
- Konzentration, ab der das Wachstum partiell gehemmt wird [3, 15]: ≥ 75 µg/mL
- Konzentration, bei der das Wachstum total gehemmt wird [3, 15]: ≥ 100 µg/mL
- Konzentration, bei der das Wachstum total gehemmt wird ([3]; Stärke as sole C source, 14 days, listed as Cellulase-Inhibitor): 100 µg/mL
- Konzentration, bei der die Amylase total gehemmt wird ([4]; Bacillus-Amylase): 100 µg/mL
- Hemmung der Enzymaktivität [4]: bei höherer Konzentration hemmte
- Konzentration, bei der die Amylase vollständig / total gehemmt wird ([5]; Humanamylase (500 U/mg, Sigma)): 25 µg/mL
- Hemmung der Enzymaktivität ([5]; result in words): bei höherer Konzentration hemmte
- Hemmung der Enzymaktivität [6]: unbeeinflusst blieben
- Hemmung von Keimung und Pflanzenwachstum [7]: weder der Amylase-Inhibitor AI-1 noch der amylasehemmende Wirkung zeigende Cellulose-Inhibitor die Keimung und das Pflanzenwachstum hemmten
- negativer Effekt auf das Pflanzenwachstum [7]: keinerlei negativen Effekt auf das Pflanzenwachstum
- Hemmung der Enzymaktivität [8]: nicht bzw. nur unwesentlich hemmt
- Hemmung der Enzymaktivität ([8]; listed as Cellulase-Inhibitor): bei höheren Konzentrationen auch die Amylasen des Fusarium-Kulturfiltrates hemmt; also recorded: unbeeinflusst blieben
- Fusarium Protein Equivalent (µg/g), Mittelwert [9, 13]: 66,34 µg/g
- Fusarium Protein Equivalent (µg/g), Mittelwert ([9]; not infected (K) + inhibitor): 0,04 µg/g
- Aussehen der behandelten, infizierten Pflanzen (Fotos) ([9]; result in words): grüner aus, sind aber im Wuchs doch deutlich reduziert
- Reduktion des Befalls der Wurzeln (ELISA) ([9]; 2 weeks): 51%
- Fusarium Protein Equivalent (µg /g), Mean [9, 14]: 618,9 µg /g
- Fusarium Protein Equivalent (µg /g), Mean ([9]; not infected (K) + inhibitor): 49,0 µg /g
- Hemmung der Enzymaktivität [10]: nicht bzw. nur unwesentlich hemmt
- Hemmung der Enzymaktivität ([10]; listed as Cellulase-Inhibitor): unbeeinflusst blieben
- Inhibition [12]: in starkem Maße zu inhibieren
